From PubChem BioAssay (NCI)
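Tested at 5 concentrations; 48 h exposure; 96-well plates; endpoints linearly interpolated, else capped at highest concentration. GI50 marks 50% less growth. The concentration for full growth arrest is given as TGI.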

Columns and labels:
Experiment in all cases: DTP human tumour cell line panel, 48 h
HCT-116 colon = tested on: HCT-116 colon
IGROV1 ovarian = tested on: IGROV1 ovarian
KM12 colon = tested on: KM12 colon
MOLT-4 leukemia = tested on: MOLT-4 leukemia
NCI-H522 lung = tested on: NCI-H522 lung
OVCAR-4 ovarian = tested on: OVCAR-4 ovarian
SF-539 CNS = tested on: SF-539 CNS
SK-MEL-28 melanoma = tested on: SK-MEL-28 melanoma
SW-620 colon = tested on: SW-620 colon
UO-31 renal = tested on: UO-31 renal

| SMILES | GI50 (HCT-116 colon) [µM] | TGI (HCT-116 colon) [µM] | GI50 (IGROV1 ovarian) [µM] | TGI (IGROV1 ovarian) [µM] | GI50 (KM12 colon) [µM] | TGI (KM12 colon) [µM] | GI50 (MOLT-4 leukemia) [µM] | TGI (MOLT-4 leukemia) [µM] | GI50 (NCI-H522 lung) [µM] | TGI (NCI-H522 lung) [µM] | GI50 (OVCAR-4 ovarian) [µM] | TGI (OVCAR-4 ovarian) [µM] | GI50 (SF-539 CNS) [µM] | TGI (SF-539 CNS) [µM] | GI50 (SK-MEL-28 melanoma) [µM] | TGI (SK-MEL-28 melanoma) [µM] | GI50 (SW-620 colon) [µM] | TGI (SW-620 colon) [µM] | GI50 (UO-31 renal) [µM] | TGI (UO-31 renal) [µM] |
| --- | --- | --- | --- | --- | --- | --- | --- | --- | --- | --- | --- | --- | --- | --- | --- | --- | --- | --- | --- | --- |
| Oc1ccc(C(c2ccc(O)cc2)c2ccc(Cl)cn2)cc1 | 0.473 | > 100 | 0.378 | 42 | 0.463 | > 100 | 23.7 | > 100 | 2.63 | 69.8 | 0.0243 | 0.0598 | 13.7 | > 100 | 28 | > 100 | 60.7 | > 100 | 2.04 | > 100 |
| COc1ccc2c(c1)C(=O)c1c-2n(CCCN=[N+]=[N-])c(=O)c2cc(N(C)C)ccc12 | 77.3 | > 100 | > 100 | > 100 | 3.66 | > 100 | > 100 | > 100 | 11.2 | 92.4 | > 100 | > 100 | 17.6 | > 100 | > 100 | > 100 | > 100 | > 100 | > 100 | > 100 |
| COc1ccc(C2SCC(=O)N2NC(=O)C(O)c2ccccc2)cc1OC (stereo not given) | > 100 | > 100 | > 100 | > 100 | > 100 | > 100 | > 100 | > 100 | > 100 | > 100 | > 100 | > 100 | > 100 | > 100 | > 100 | > 100 | > 100 | > 100 | > 100 | > 100 |
| O=C(c1ccccc1)C1CCCCN1C(=O)c1ccccc1 (stereo not given) |  | > 100 |  | > 100 |  | > 100 |  | > 100 |  | > 100 |  | > 100 |  | > 100 |  | > 100 |  | > 100 |  | > 100 |
| CCCNCCCC(NC(C)=O)C(=O)NCc1ccccc1 (stereo not given) |  | > 100 |  | > 100 |  | > 100 |  | > 100 |  | > 100 |  | > 100 |  | > 100 |  | > 100 |  | > 100 |  | > 100 |
| O=[N+]([O-])c1ccc(S(=O)Cc2ccccc2)c([N+](=O)[O-])c1 (stereo not given) | 1.29 | 2.55 | 14.1 | 33.9 | 15.6 | 29.4 | 2.1 | 4.88 | 1.32 | 2.94 | 1.5 | 2.93 | 3.64 | 13.8 | 1.89 | 4.13 | 1.33 | 2.65 | 1.47 | 2.91 |
| O=C1c2ccc([N+](=O)[O-])cc2-c2c1c1ccccc1c(=O)n2CCCNCCCNCCCn1c2c(c3ccc([N+](=O)[O-])cc3c1=O)C(=O)c1ccccc1-2 | 0.933 | 2.91 | 2.43 | 15.8 | 1.53 | 4.31 | 0.129 | 2.11 | 7.1 | 32.3 | 1.06 | 2.88 | 1.96 | 7 | 3.83 | 15.9 | 0.81 | 3.07 | 10.4 | 33.8 |
